From PMC11987438, “A novel approach utilizing spirocyclic thiopyrimidinone compounds against herpes simplex virus with underlying antiviral mechanisms of action” (Virology Journal, 2025)
In brackets after ≈: the same amount, converted by molar mass. Entries after “also recorded” stand apart in the source; their conditions may differ.

Key:
[1] = system: herpes simplex virus type 2 (HSV-2); assay: Antiviral activity screening by MTT; type: cell-based, human herpes simplex virus type 2; conditions: for IC50: Human alphaherpesvirus 2, HSV-2 (MOI = 1) in Vero cells, 72 h, MTT; for SI: selectivity index, CC50 (Vero) / IC50 (HSV-2)
Protocol: In accordance with the previous section, the CC50 (50% cytotoxic concentration) of each compound was determined as the starting point for screening its antiviral activity. A volume of 100 µL of cell suspension containing 10^4 cells was added to each well of a 96-well plate. The plates with the cells were then placed in a 5% humidified CO2 incubator at 37 °C for 24 h to allow the cells to adhere and form a monolayer. The cell monolayers were subsequently washed once with 1x phosphate-buffered saline (PBS) and infected with herpes simplex virus type 2 (HSV-2) (MOI = 1) in triplicate for 1 h. After the infection period, 100 µL of each compound’s serial dilution was added to the infected cells. A triplicate of untreated infected cells was included as a positive control (VC), and the mixture was incubated for 72 h at 37 °C in a 5% CO2 incubator. Following the 72-hour incubation, the supernatant medium was removed, and the cell monolayers were washed with 1x PBS. Then, 25 µL of a 0.5 mg/mL solution of MTT (3-(4,5-dimethylthiazol-2-yl)-2,5-diphenyltetrazolium bromide) obtained from Sigma‒Aldrich, Saint Louis, MO, USA, was added to each well and incubated for 2 h at 37 °C. The MTT reagent was subsequently discarded, and 200 µL of acidified isopropanol (1 N HCl in 99.9% isopropanol) was added to dissolve the formazan crystals formed by the viable cells. Finally, the color intensity was measured, and the absorbance was recorded via an ELISA plate reader. The data obtained were used to calculate the IC50 values (50% inhibitory concentration) via nonlinear regression analysis. This was accomplished by plotting the logarithm of the inhibitor concentration against the normalized response. The analysis was performed via GraphPad Prism 5 analysis software.

[2] = Cytotoxicity screening via crystal violet assay; type: cell-based; conditions: African green monkey, Vero cells
Protocol: A volume of 100 µL of cell suspension containing 10^4 cells was placed in each well of a 96-well plate. The plates containing the cells were then placed in a 5% humidified CO2 incubator at 37 °C for 24 h to allow the cells to form a confluent monolayer. By twofold serial dilution, each compound was diluted in 0.01 mL of medium, starting with a concentration of 1000 µg/ml. The diluted compounds were then cultured for 72 h at 37 °C in an environment with 5% CO2. Each concentration was tested 3 times. After the incubation period, the supernatant was discarded, and the cells were washed with 1x phosphate-buffered saline (PBS). The cells were then fixed with 100 µL of 10% formaldehyde and incubated at room temperature for 20 min. The cells were subsequently washed five times with running water. Next, 50 µL of a 0.1% solution of crystal violet dye (LOBA CHEMIE. LTD; C.I.No. 42555) was added to each well and incubated for 15 min. The cell monolayers were washed again and allowed to air dry. Finally, the crystal violet dye was dissolved by adding 200 µL of methanol, and the mixture was incubated for 20 min. The absorbance was measured via an ELISA plate reader (FLUOstar Omega Ω) at a wavelength of 570 nm. Cell viability was calculated as a percentage of the average optical density of the cell controls, which was set to 100%. The 50% cytotoxic concentration (CC50) was calculated via mean dose‒response curves via GraphPad Prism.

[3] = system: herpes simplex virus type 2 (HSV-2); assay: Inhibition mechanism of action: virucidal; type: cell-based, human herpes simplex virus type 2; conditions: compound mixed with HSV-2 (MOI = 1) 1 h at room temperature before inoculation of Vero cells, 72 h, MTT
Protocol: (§1) To gain a better understanding of how each compound’s antiviral activity inhibits specific steps in the viral cycle, we investigated three mechanisms: virus adsorption, virus replication, and viral fusion (virucidal). For the adsorption mechanism, we seeded 100 µl of cell suspension into 96-well cell culture plates under the previously mentioned conditions. After 24 h, the medium was discarded, and the adherent cells were washed with 1x PBS. Then, we added 100 µl of each promising compound at a pretested safe cytotoxic concentration (CC50) to the cells in triplicate. The plates were then incubated at 4 °C for 1 h to allow the compounds to adsorb onto the cell receptors. After incubation, the compound was removed, and the cells were washed again with 1x PBS. Next, we added 100 µl of the virus mixture (MOI = 1) to each well and incubated it for 1 h at 37 °C in a CO2 incubator. The virus was removed, and the cells were washed once more with 1x PBS. Finally, we added 100 µl of maintenance media containing 3% bovine serum albumin (BSA) and incubated the plates for 72 h at 37 °C in a 5% CO2 incubator. For the replication mechanism, we added 100 µl of diluted virus (MOI = 1) to a preseeded 96-well cell culture plate and incubated it for 1 h at 37 °C in a CO2 incubator. After incubation, the virus was removed, and 100 µl of each compound was added in triplicate. The plates were then incubated for 1 h at 37 °C in a CO2 incubator. Next, 100 µl of maintenance medium was added to each well. For the virucidal mechanism, we mixed an equal volume of the safe concentration of the pretested compound with the virus dilution (MOI = 1) and incubated the mixture at room temperature for 1 h. We subsequently prepared twofold serial dilutions of the mixture and inoculated them into the cells, which were then incubated for 1 h at 37 °C in a CO2 incubator. After incubation, the supernatant was removed, the cells were washed, and 100 µl of maintenance media was added. […] Finally, we measured the absorbance at λ = 570 nm via a plate reader (FLUOstar Omega Ω).

[4] = system: Caspase-3 protein expression; assay: Western blot of Caspase-3 protein expression in HSV-2-infected Vero cells; type: cell-based, African green monkey; conditions: HSV-2-infected Vero cells (MOI = 1) treated at IC50; 1, 3, 6, 12 and 24 h postinfection
Protocol: A 3 ml cell suspension was cultured in six-well cell culture plates supplemented with complete DMEM and then incubated at 37 °C in a 5% CO2 incubator for 24 h. After incubation, the supernatant was discarded, and the cell monolayer was washed with 3 ml of 1x PBS. The cell monolayer was then treated in duplicate according to the IC50. Duplicates for cell and virus control were included. The cell pellets were collected at 1, 3, 6, 12, and 24 h postinfection. The cell pellets were lysed with ice-cold RIPA lysis buffer supplemented with fresh protease inhibitor cocktail, incubated for 30 min on ice, and centrifuged at 15,000 RPM at 4 °C for 20 min, after which the supernatant was transferred to a fresh tube. The total water-soluble protein concentration was quantified via a bicinchoninic acid protein assay kit (Micro BCA™ Protein Assay Kit, REF: 23235; Thermo Scientific). Ten micrograms of protein were loaded in 2x Laemmli buffer and separated via 12% sodium dodecyl sulfate–polyacrylamide gel electrophoresis (SDS‒PAGE) along with a protein ladder (Cat. No. PM008-0500, GeneDirex, Taiwan). The proteins were transferred to a 0.2 μm PVDF membrane (REF.03010040001, Sigma Aldrich, St. Louis, MO, USA) by a Mini-PROTEAN® Tetra Cell and Mini Trans-Blot (Bio-Rad) in transfer buffer (Bio-Rad Tris/Glycine transfer buffer Cat. #1610734) for 45 min at 100 V and 350 mA. β-actin (REF. No. MA5-11869; Invitrogen) was detected as a housekeeping protein against the Caspase-3 mAb (REF. No. 9662 S, Cell Signaling, Danvers, MA, USA) at a 1:1000 dilution via horseradish peroxidase-conjugated anti-mouse IgG (61-6520; Invitrogen) and anti-rabbit IgG (31460; Invitrogen) diluted 1:3000. Bands were detected via SuperSignal™ West Pico PLUS Chemiluminescent Substrate enhanced chemiluminescence (ECL, REF. 34577, Thermo Scientific, USA). Images were captured with a Bio-Rad ChemiDoc gel documentation imaging system and analyzed by Image Lab (Bio-Rad 6.1).

[5] = system: herpes simplex virus type 2 (HSV-2); assay: Inhibition mechanism of action: virus adsorption; type: cell-based, human herpes simplex virus type 2; conditions: Vero cells pretreated with compound at safe concentration 1 h at 4 °C, then HSV-2 MOI = 1, 72 h, MTT
Protocol: as §1, with “incubator.” for “incubator. After incubation, the virus was removed, and 100 µl of each compound was added in triplicate. The plates were then incubated for 1 h at 37 °C in a CO2 incubator. Next, 100 µl of maintenance medium was added to each well. For the virucidal mechanism, we mixed an equal volume of the safe concentration of the pretested compound with the virus dilution (MOI = 1) and incubated the mixture at room temperature for 1 h. We subsequently prepared twofold serial dilutions of the mixture and inoculated them into the cells, which were then incubated for 1 h at 37 °C in a CO2 incubator. After incubation, the supernatant was removed, the cells were washed, and 100 µl of maintenance media was added.”

[6] = system: herpes simplex virus type 2 (HSV-2); assay: Inhibition mechanism of action: virus replication; type: cell-based, human herpes simplex virus type 2; conditions: Vero cells infected with HSV-2 MOI = 1 for 1 h, then compound, 72 h, MTT
Protocol: as §1

| IC50 [1] [µg/mL] | Compound | SI [1] | CC50 at 72 h [2] [µg/mL] | inhibition by virucidal mechanism [3] [%] | Caspase-3 protein expression level vs HSV-2 virus control [4] | inhibition of HSV-2 adsorption [5] [%] | inhibition of HSV-2 replication [6] [%] |
| --- | --- | --- | --- | --- | --- | --- | --- |
| 346 (≈ 956 µM) | N#CC1(/N=N/c2ccc(Cl)cc2)C(=O)NC(=S)NC12CCCCC2 (stereo not drawn) [Compound 5e] | 0.296 | 103 (≈ 284 µM) |  |  |  |  |
| 217 (≈ 449 µM) | N#CC1(/N=N/c2ccc(S(=O)(=O)Nc3ccccn3)cc2)C(=O)NC(=S)NC12CCCCC2 (stereo not drawn) [Compound 5d] | 2.14 | 466 (≈ 963 µM) |  |  |  |  |
| 536 (≈ 1320 µM) | N#CC1(/N=N/c2ccc(S(N)(=O)=O)cc2)C(=O)NC(=S)NC12CCCCC2 (stereo not drawn) [Compound 5b] | 0.231 | 124 (≈ 306 µM) |  |  |  |  |
| 399 (≈ 814 µM) | N#CC1(/N=N/c2ccc(S(=O)(=O)Nc3nccs3)cc2)C(=O)NC(=S)NC12CCCCC2 (stereo not drawn) [Compound 5f] | 0.268 | 107 (≈ 219 µM) |  |  |  |  |
| 5410 (≈ 10700 µM) | CC(=O)C(SC1NC(=O)C(C#N)(/N=N/c2ccc(S(N)(=O)=O)cc2)C2(CCCCC2)N1)C(C)=O (stereo not drawn) [Compound 6b] | 0.173 | 940 (≈ 1860 µM) |  |  |  |  |
| 974 (≈ 2970 µM) | N#CC1(/N=N/c2ccccc2)C(=O)NC(=S)NC12CCCCC2 (stereo not drawn) [Compound 5a] | 0.045 | 43.9 (≈ 134 µM) |  |  |  |  |
| 53.8 (≈ 116 µM) | CC(=O)C(SC1NC(=O)C(C#N)(/N=N/c2ccc(Cl)cc2)C2(CCCCC2)N1)C(C)=O (stereo not drawn) [Compound 6a] | 1.15 | 62.4 (≈ 135 µM) |  |  |  |  |
| 749 (≈ 1280 µM) | CC(=O)C(SC1NC(=O)C(C#N)(/N=N/c2ccc(S(=O)(=O)Nc3ccccn3)cc2)C2(CCCCC2)N1)C(C)=O (stereo not drawn) [Compound 6c] | 0.056 | 42.1 (≈ 72.1 µM) |  |  |  |  |

| Compound | IC50 [1] [µg/mL] | SI [1] | CC50 at 72 h [2] [µg/mL] | inhibition by virucidal mechanism [3] [%] | Caspase-3 protein expression level vs HSV-2 virus control [4] | inhibition of HSV-2 adsorption [5] [%] | inhibition of HSV-2 replication [6] [%] |
| --- | --- | --- | --- | --- | --- | --- | --- |
| CSC1NC(=O)C(C#N)C2(CCCCC2)N1 (stereo not drawn) [Compound 2] | 130 (≈ 544 µM) |  | 566 (≈ 2360 µM) | 8 | decreased; also recorded: slight changes | 32 | 26 |
| CC(=O)C(SC1NC(=O)C(C#N)C2(CCCCC2)N1)C(=O)Nc1ccccc1 (stereo not drawn) [Compound 3, 2-((5-cyano-4-oxo-1,3-diazaspiro[5.5]undecan-2-yl)thio)-3-oxo-N-phenylbutanamide] | 45.4 (≈ 113 µM) |  | 509 (≈ 1270 µM) | 8 | decreased; also recorded: significant decrease |  | 34 |
| N#CC1(/N=N/c2ccc(S(=O)(=O)Nc3ncccn3)cc2)C(=O)NC(=S)NC12CCCCC2 (stereo not drawn) [Compound 5c] | 13.9 (≈ 28.8 µM) | 3.84 | 53.7 (≈ 111 µM) | 15 | decreased; also recorded: slight changes | 42 | 30 |
